# Assay results as given in ChEMBL document CHEMBL3137667, “[Drug-induced liver injury; fourteenth updated edition of the bibliographic database of liver injuries and related drugs]” (Gastroenterol Clin Biol, 2004).
# Assays:
# [1] = human
# [2] = human; remark: listed apart in the source
# [3] = human; remark: listed apart in the source
# [4] = human; remark: listed apart in the source
# [5] = human; remark: listed apart in the source
# [6] = Times to onset, minimal and maximal, observed in the indexed observations. [column 'DELAI' in source]; conditions: human
# [7] = human; remark: listed apart in the source
# [8] = Highest frequency of moderate liver toxicity observed during clinical trials, expressed as a percentage. [column '% BIOL' in source]; conditions: human
# [9] = human; remark: listed apart in the source
# [10] = human, serum
# [11] = human; remark: listed apart in the source
# [12] = human, serum; remark: listed apart in the source
# [13] = human, serum, 4383 h
# [14] = Highest frequency of acute liver toxicity observed during clinical trials, expressed as a percentage. [column '% AIGUE' in source]; conditions: human
# [15] = human; remark: listed apart in the source
# 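For Hepatotoxicity (association with vascular disease) in this document: count of indexed literature references reporting vascular liver injury in humans, e.g. peliosis hepatitis, hepatic veno-occlusive disease or Budd-Chiari syndrome.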
# 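For Hepatotoxicity (benign tumour) in this document: value is a count of indexed literature references citing a benign tumour confirmed by histopathology.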
# 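For Hepatotoxicity (choleostasis) in this document: human cholestatic liver injury, shown by histopathology or by peak ALT or AST elevation over alkaline phosphatase ratio below 2, value counts indexed literature reports.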
# 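For Hepatotoxicity (chronic liver disease) in this document: chronic liver injury confirmed by histopathology or persistently raised serum aminotransferase activity beyond 6 months, value given as the count of indexed literature references.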
# 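For Hepatotoxicity (cirrhosis) in this document: value is a count of indexed literature references reporting cirrhosis confirmed by histopathology.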
# 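For Hepatotoxicity (cytolytic) in this document: human cytolytic liver injury, shown by histopathology or by a ratio above 5 of peak ALT or AST elevation to alkaline phosphatase elevation, value counts indexed references.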
# 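For Hepatotoxicity (granulomatous hepatitis) in this document: value is a count of indexed literature references reporting granulomatous liver disease confirmed by histopathology.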
# 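For Hepatotoxicity (malignant tumour) in this document: malignant tumour confirmed by histopathology, value gives the count of indexed literature references reporting it.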
# 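For Hepatotoxicity (severe hepatitis) in this document: human clinical data: severe hepatitis, meaning potentially life-threatening liver failure or clinically observed cases, the value counts how many indexed literature references report it.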
# 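For Hepatotoxicity (steatosis) in this document: steatosis confirmed by histopathology, value is the count of indexed references.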
structure (smiles),measurement,setting,value
CC(=O)[C@H]1CC[C@H]2[C@@H]3CC[C@@H]4C[C@H](O)CC[C@]4(C)[C@H]3CC[C@]12C [ELTANOLONE],Hepatotoxicity (benign tumour),[1],0
same,Hepatotoxicity (cirrhosis),[2],0
same,Hepatotoxicity (malignant tumour),[3],0
same,Hepatotoxicity (steatosis),[4],0
same,Hepatotoxicity (association with vascular disease),[5],0
same,Hepatotoxicity (time to onset),[6],1 days
same,Hepatotoxicity (cytolytic),[7],0
same,Hepatotoxicity (moderate),[8],12.6%
same,Hepatotoxicity (severe hepatitis),[9],0
same,Hepatotoxicity (acute),[10],0
same,Hepatotoxicity (choleostasis),[11],0
same,Hepatotoxicity (moderate),[12],2
same,Hepatotoxicity (chronic liver disease),[13],0
same,Hepatotoxicity (acute),[14],0%
same,Hepatotoxicity (granulomatous hepatitis),[15],0
CCn1cc(C(=O)O)c(=O)c2cc(F)c(N3CCNCC3)nc21 [ENOXACIN],Hepatotoxicity (benign tumour),[1],0
same,Hepatotoxicity (cirrhosis),[2],0
same,Hepatotoxicity (malignant tumour),[3],0
same,Hepatotoxicity (steatosis),[4],0
same,Hepatotoxicity (association with vascular disease),[5],0
same,Hepatotoxicity (time to onset),[6],9 days
same,Hepatotoxicity (cytolytic),[7],0
same,Hepatotoxicity (moderate),[8],3.3%
same,Hepatotoxicity (severe hepatitis),[9],0
same,Hepatotoxicity (acute),[10],1
same,Hepatotoxicity (choleostasis),[11],1
same,Hepatotoxicity (moderate),[12],6
same,Hepatotoxicity (chronic liver disease),[13],0
same,Hepatotoxicity (acute),[14],0%
same,Hepatotoxicity (granulomatous hepatitis),[15],0
COc1cc2oc(=O)c(C)c(C)c2cc1OCCCN1CCN(c2ccccc2OC)CC1 [ENSACULIN],Hepatotoxicity (benign tumour),[1],0
same,Hepatotoxicity (cirrhosis),[2],0
same,Hepatotoxicity (malignant tumour),[3],0
same,Hepatotoxicity (steatosis),[4],0
same,Hepatotoxicity (association with vascular disease),[5],0
same,Hepatotoxicity (time to onset),[6],2 weeks
same,Hepatotoxicity (cytolytic),[7],0
same,Hepatotoxicity (moderate),[8],8.3%
same,Hepatotoxicity (severe hepatitis),[9],0
same,Hepatotoxicity (acute),[10],0
same,Hepatotoxicity (choleostasis),[11],0
same,Hepatotoxicity (moderate),[12],1
same,Hepatotoxicity (chronic liver disease),[13],0
same,Hepatotoxicity (acute),[14],0%
same,Hepatotoxicity (granulomatous hepatitis),[15],0
CCN(CC)C(=O)/C(C#N)=C/c1cc(O)c(O)c([N+](=O)[O-])c1 [ENTACAPONE],Hepatotoxicity (benign tumour),[1],0
same,Hepatotoxicity (cirrhosis),[2],0
same,Hepatotoxicity (malignant tumour),[3],0
same,Hepatotoxicity (steatosis),[4],0
same,Hepatotoxicity (association with vascular disease),[5],0
same,Hepatotoxicity (time to onset),[6],2 weeks - 6 weeks
same,Hepatotoxicity (cytolytic),[7],0
same,Hepatotoxicity (moderate),[8],0%
same,Hepatotoxicity (severe hepatitis),[9],0
same,Hepatotoxicity (acute),[10],2
same,Hepatotoxicity (choleostasis),[11],2
same,Hepatotoxicity (moderate),[12],1
same,Hepatotoxicity (chronic liver disease),[13],0
same,Hepatotoxicity (acute),[14],0%
same,Hepatotoxicity (granulomatous hepatitis),[15],0
CCC1(C)CC(=O)NC1=O (stereo not given) [ETHOSUXIMIDE],Hepatotoxicity (benign tumour),[1],0
same,Hepatotoxicity (cirrhosis),[2],0
same,Hepatotoxicity (malignant tumour),[3],0
same,Hepatotoxicity (steatosis),[4],0
same,Hepatotoxicity (association with vascular disease),[5],0
same,Hepatotoxicity (time to onset),[6],1 month
same,Hepatotoxicity (cytolytic),[7],0
same,Hepatotoxicity (moderate),[8],0%
same,Hepatotoxicity (severe hepatitis),[9],0
same,Hepatotoxicity (acute),[10],0
same,Hepatotoxicity (choleostasis),[11],0
same,Hepatotoxicity (moderate),[12],2
same,Hepatotoxicity (chronic liver disease),[13],0
same,Hepatotoxicity (acute),[14],0%
same,Hepatotoxicity (granulomatous hepatitis),[15],0
CCNC1=Nc2ccc(Cl)cc2C(C)(c2ccccc2)O1 (stereo not given) [ETIFOXINE],Hepatotoxicity (benign tumour),[1],0
same,Hepatotoxicity (cirrhosis),[2],0
same,Hepatotoxicity (malignant tumour),[3],0
same,Hepatotoxicity (steatosis),[4],0
same,Hepatotoxicity (association with vascular disease),[5],0
same,Hepatotoxicity (time to onset),[6],11 days
same,Hepatotoxicity (cytolytic),[7],1
same,Hepatotoxicity (moderate),[8],0%
same,Hepatotoxicity (severe hepatitis),[9],0
same,Hepatotoxicity (acute),[10],1
same,Hepatotoxicity (choleostasis),[11],0
same,Hepatotoxicity (moderate),[12],0
same,Hepatotoxicity (chronic liver disease),[13],0
same,Hepatotoxicity (acute),[14],0%
same,Hepatotoxicity (granulomatous hepatitis),[15],0
CCOC(=O)c1cncn1[C@H](C)c1ccccc1 [ETOMIDATE],Hepatotoxicity (benign tumour),[1],0
same,Hepatotoxicity (cirrhosis),[2],0
same,Hepatotoxicity (malignant tumour),[3],0
same,Hepatotoxicity (steatosis),[4],0
same,Hepatotoxicity (association with vascular disease),[5],0
same,Hepatotoxicity (time to onset),[6],3 days - 5 days
same,Hepatotoxicity (cytolytic),[7],0
same,Hepatotoxicity (moderate),[8]; Liver,5%
same,Hepatotoxicity (severe hepatitis),[9]; Liver,0
same,Hepatotoxicity (acute),[10],0
same,Hepatotoxicity (choleostasis),[11],0
same,Hepatotoxicity (moderate),[12],1
same,Hepatotoxicity (chronic liver disease),[13],0
same,Hepatotoxicity (acute),[14]; Liver,0%
same,Hepatotoxicity (granulomatous hepatitis),[15],0
NC(=O)OCC(COC(N)=O)c1ccccc1 [FELBAMATE],Hepatotoxicity (benign tumour),[1],0
same,Hepatotoxicity (cirrhosis),[2],0
same,Hepatotoxicity (malignant tumour),[3],0
same,Hepatotoxicity (steatosis),[4],0
same,Hepatotoxicity (association with vascular disease),[5],0
same,Hepatotoxicity (time to onset),[6],13 days - 6 months
same,Hepatotoxicity (cytolytic),[7],2
same,Hepatotoxicity (moderate),[8],7.1%
same,Hepatotoxicity (severe hepatitis),[9],3
same,Hepatotoxicity (acute),[10],4
same,Hepatotoxicity (choleostasis),[11],0
same,Hepatotoxicity (moderate),[12],4
same,Hepatotoxicity (chronic liver disease),[13],0
same,Hepatotoxicity (acute),[14],0%
same,Hepatotoxicity (granulomatous hepatitis),[15],0
COc1ccc(OC[C@H]2CN(C)CC[C@@H]2c2ccccc2)cc1 [FEMOXETINE],Hepatotoxicity (benign tumour),[1],0
same,Hepatotoxicity (cirrhosis),[2],0
same,Hepatotoxicity (malignant tumour),[3],0
same,Hepatotoxicity (steatosis),[4],0
same,Hepatotoxicity (association with vascular disease),[5],0
same,Hepatotoxicity (time to onset),[6],5 months
same,Hepatotoxicity (cytolytic),[7],1
same,Hepatotoxicity (moderate),[8],0%
same,Hepatotoxicity (severe hepatitis),[9],1
same,Hepatotoxicity (acute),[10],1
same,Hepatotoxicity (choleostasis),[11],0
same,Hepatotoxicity (moderate),[12],0
same,Hepatotoxicity (chronic liver disease),[13],0
same,Hepatotoxicity (acute),[14],0%
same,Hepatotoxicity (granulomatous hepatitis),[15],0
CC1=C(/C=C/C(C)=C/C=C/C(C)=C/C(=O)Nc2ccc(O)cc2)C(C)(C)CCC1 [FENRETINIDE],Hepatotoxicity (benign tumour),[1],0
same,Hepatotoxicity (cirrhosis),[2],0
same,Hepatotoxicity (malignant tumour),[3],0
same,Hepatotoxicity (steatosis),[4],0
same,Hepatotoxicity (association with vascular disease),[5],0
same,Hepatotoxicity (time to onset),[6],1 week
same,Hepatotoxicity (cytolytic),[7],0
same,Hepatotoxicity (moderate),[8],12.8%
same,Hepatotoxicity (severe hepatitis),[9],0
same,Hepatotoxicity (acute),[10],0
same,Hepatotoxicity (choleostasis),[11],0
same,Hepatotoxicity (moderate),[12],3
same,Hepatotoxicity (chronic liver disease),[13],0
same,Hepatotoxicity (acute),[14],0%
same,Hepatotoxicity (granulomatous hepatitis),[15],0
O=C(O)Cc1sc(-c2ccccc2)nc1-c1ccc(Cl)cc1 [FENTIAZAC],Hepatotoxicity (benign tumour),[1],0
same,Hepatotoxicity (cirrhosis),[2],0
same,Hepatotoxicity (malignant tumour),[3],0
same,Hepatotoxicity (steatosis),[4],0
same,Hepatotoxicity (association with vascular disease),[5],0
same,Hepatotoxicity (time to onset),[6],4 months - 5 months
same,Hepatotoxicity (cytolytic),[7],1
same,Hepatotoxicity (moderate),[8],35%
same,Hepatotoxicity (severe hepatitis),[9],0
same,Hepatotoxicity (acute),[10],2
same,Hepatotoxicity (choleostasis),[11],0
same,Hepatotoxicity (moderate),[12],3
same,Hepatotoxicity (chronic liver disease),[13],0
same,Hepatotoxicity (acute),[14],6.1%
same,Hepatotoxicity (granulomatous hepatitis),[15],0
CC(C)=CCC1C(=O)N(c2ccccc2)N(c2ccccc2)C1=O [FEPRAZONE],Hepatotoxicity (benign tumour),[1],0
same,Hepatotoxicity (cirrhosis),[2],0
same,Hepatotoxicity (malignant tumour),[3],0
same,Hepatotoxicity (steatosis),[4],0
same,Hepatotoxicity (association with vascular disease),[5],0
same,Hepatotoxicity (time to onset),[6],2 weeks - 1 month
same,Hepatotoxicity (cytolytic),[7],2
same,Hepatotoxicity (moderate),[8],0%
same,Hepatotoxicity (severe hepatitis),[9],0
same,Hepatotoxicity (acute),[10],2
same,Hepatotoxicity (choleostasis),[11],2
same,Hepatotoxicity (moderate),[12],1
same,Hepatotoxicity (chronic liver disease),[13],0
same,Hepatotoxicity (acute),[14],0%
same,Hepatotoxicity (granulomatous hepatitis),[15],1
O=C(COc1ccc(Cl)cc1)N1CCN(Cc2ccc3c(c2)OCO3)CC1 [FIPEXIDE],Hepatotoxicity (benign tumour),[1],0
same,Hepatotoxicity (cirrhosis),[2],0
same,Hepatotoxicity (malignant tumour),[3],0
same,Hepatotoxicity (steatosis),[4],0
same,Hepatotoxicity (association with vascular disease),[5],0
same,Hepatotoxicity (time to onset),[6],15 days - 3 months
same,Hepatotoxicity (cytolytic),[7],3
same,Hepatotoxicity (moderate),[8],0%
same,Hepatotoxicity (severe hepatitis),[9],1
same,Hepatotoxicity (acute),[10],4
same,Hepatotoxicity (choleostasis),[11],0
same,Hepatotoxicity (moderate),[12],0
same,Hepatotoxicity (chronic liver disease),[13],0
same,Hepatotoxicity (acute),[14],0%
same,Hepatotoxicity (granulomatous hepatitis),[15],0
Cc1c(-c2ccccc2)oc2c(C(=O)OCCN3CCCCC3)cccc2c1=O [FLAVOXATE],Hepatotoxicity (benign tumour),[1],0
same,Hepatotoxicity (cirrhosis),[2],0
same,Hepatotoxicity (malignant tumour),[3],0
same,Hepatotoxicity (steatosis),[4],0
same,Hepatotoxicity (association with vascular disease),[5],0
same,Hepatotoxicity (time to onset),[6],2.5 months
same,Hepatotoxicity (cytolytic),[7],1
same,Hepatotoxicity (moderate),[8],0%
same,Hepatotoxicity (severe hepatitis),[9],0
same,Hepatotoxicity (acute),[10],1
same,Hepatotoxicity (choleostasis),[11],0
same,Hepatotoxicity (moderate),[12],0
same,Hepatotoxicity (chronic liver disease),[13],0
same,Hepatotoxicity (acute),[14],0%
same,Hepatotoxicity (granulomatous hepatitis),[15],0
O=C(NCCN1CCN(c2cccc3c2OC[C@H](CO)O3)CC1)c1ccc(F)cc1 [FLESINOXAN],Hepatotoxicity (benign tumour),[1],0
same,Hepatotoxicity (cirrhosis),[2],0
same,Hepatotoxicity (malignant tumour),[3],0
same,Hepatotoxicity (steatosis),[4],0
same,Hepatotoxicity (association with vascular disease),[5],0
same,Hepatotoxicity (time to onset),[6],6 weeks
same,Hepatotoxicity (cytolytic),[7],0
same,Hepatotoxicity (moderate),[8],12.5%
same,Hepatotoxicity (severe hepatitis),[9],0
same,Hepatotoxicity (acute),[10],0
same,Hepatotoxicity (choleostasis),[11],0
same,Hepatotoxicity (moderate),[12],1
same,Hepatotoxicity (chronic liver disease),[13],0
same,Hepatotoxicity (acute),[14],0%
same,Hepatotoxicity (granulomatous hepatitis),[15],0
